Each block holds one molecule with its values, some of them ahead of it.
What was measured:
[1] = cited from earlier work
gastric lesions = conditions: compared with the other known proton-pump inhibitors; cited from earlier work
[2] = compared with S-tenatoprazole itself and other proton-pump inhibitors; cited from earlier work
[3] = Solubility of the racemic potassium salt solvated with ethylene glycol in ethanol/ethylene glycol mixture (80% V-20% V) with potassium hydroxide excess; type: physicochemical; conditions: ethanol/ethylene glycol (80% V-20% V), KOH excess about 0.2 molar equivalent
[4] = Solubility of the racemic potassium salt solvated with ethanol in ethanolic potassium hydroxide solution; type: physicochemical; conditions: KOH excess about 0.2 molar equivalent
[5] = Solubility of the racemic potassium salt solvated in methanol in methanolic potassium hydroxide solution; type: physicochemical; conditions: KOH excess about 0.2 molar equivalent
[6] = relative to the other proton-pump inhibitors, for instance omeprazole or lansoprazole

Solubility (mass %) ([3]; 28 ° C.): 20.3 mass %
Solubility (mass %) ([3]; 32 ° C.): 24 mass %
Solubility (mass %) ([3]; 34.5 ° C.): 25.6 mass %
Solubility (mass %) ([3]; 39 ° C.): 33.5 mass %
Structure (SMILES): COc1ccc2nc([S+]([O-])Cc3ncc(C)c(OC)c3C)[n-]c2n1.[K+] (racemic) [racemic mixture of the potassium salt solvated with ethylene glycol, potassium tenatoprazole ethylene glycolate]

Solubility (mass %) ([4]; 33.9 ° C.): 4.24 mass %
Solubility (mass %) ([4]; 37 ° C.): 5.3 mass %
Structure (SMILES): COc1ccc2nc([S+]([O-])Cc3ncc(C)c(OC)c3C)[n-]c2n1.[K+] (racemic) [racemic mixture of the potassium salt solvated with ethanol, potassium tenatoprazole diethanolate]

Solubility (mass %) ([5]; 30 ° C.): 4.4 mass %
Solubility (mass %) ([5]; 38 ° C.): 5.2 mass %
Solubility (mass %) ([5]; 40 ° C.): 6.5 mass %
Solubility (mass %) ([5]; 42 ° C.): 7.7 mass %
Solubility (mass %) ([5]; 56 ° C.): 12.2 mass %
Structure (SMILES): COc1ccc2nc([S+]([O-])Cc3ncc(C)c(OC)c3C)[n-]c2n1.[K+] (racemic) [racemic mixture of the potassium salt solvated in methanol, potassium tenatoprazole dimethanolate]

More lines, now with the values behind:

Structure (SMILES): COc1ccc2nc([S+]([O-])Cc3ncc(C)c(OC)c3C)[nH]c2n1 (stereo not shown) [tenatoprazole, 5-methoxy-2-[[(4-methoxy-3,5-dimethyl-2-pyridyl)methyl]sulfinyl]imidazo[4,5-b]pyridine]
duration of action [1, 6]: markedly longer duration of action
plasmatic half-life [1, 6]: about seven times greater
level of relief of the symptoms and of cicatrization of gastric lesions (gastric lesions): greater level of relief of the symptoms and of cicatrization of gastric lesions

Structure (SMILES): COc1ccc2[nH]c([S+]([O-])Cc3ncc(C)c(OC)c3C)nc2n1.O.[Na] (stereo not shown) [S-tenatoprazole sodium salt monohydrate]
solubility [2]: excellent solubility

Structure (SMILES): COc1ccc2[nH]c([S@@+]([O-])Cc3ncc(C)c(OC)c3C)nc2n1 [S-tenatoprazole]
pharmacokinetic properties ([1]; compared with the racemic mixture and the enantiomer of R configuration): significantly different
